Source: the supplement of paper PMC11208160

Assay: recombinant UMI read abundance after kanamycin selection (control-corrected) (log10(CPM+1)); higher = more efficient recombination; extreme values may be limits of the assay; sequences stand for … in AGTGCAGAGAAAATCGGCCAGTTTTCTCTGCCTGCAGTCCGCATGCCGTGGGACCCCTTGGGTTCTAACCTGTTGCCTAGATTTATGCAGCGGACTGCCTTTCTCCCAAAGTGATAAACCGG…AGGTTGGTTTCACT; site = the 11-nt donor
How it was run: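 Reported values are log10(CPM+1) from a pooled Escherichia coli screen of donor and donor-binding-loop pairs for the IS621 bridge recombinase. Selection used IPTG (0.07 mM) plus kanamycin, against unselected plating, each in two replicates. Recombinant UMIs were amplified across the donor–target junction, sequenced, converted to CPM, averaged over replicates and scaled by control-derived factors.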
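Also: IS621 bridge recombinase in Escherichia coli cells against a fixed T5 target plasmid.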

Sequence	recombinant UMI read abundance (log10)
TGCACCGCATGGACCGGTTTTCCCGGTAATCCGTATTTGCG (site TCCACCGCTCG)	0.0173
TGCACCGCATGGACCGGTTTTCCCGGTAATCCGTATTTGCG (site TGCACCGCTCG)	0.0216
TGCACCGCATGGACCGGTTTTCCCGGTAATCCGTATTTGCG (site TTCACCGCTCG)	0.00682
TGCAGCACATGGACCGGTTTTCCCGGTAATCCGTATTTGCG (site TGCAGCACTCG)	0.686
TGCAGTGCATGGACCGGTTTTCCCGGTAATCCGTATTTGTA (site TGCAGTGCTTA)	0.853
TGCATCCCATGGACCGGTTTTCCCGGTAATCCGTATTTGAA (site TGCATCCCTTT)	0.335
TGCATTCCATGGACCGGTTTTCCCGGTAATCCGTATTTGTT (site TGCATTCCTAA)	0
TGCCAGGCATGGACCGGTTTTCCCGGTAATCCGTATTTGTC (site TGCCAGGCTGA)	0
TGCCATTCATGGACCGGTTTTCCCGGTAATCCGTATTTGAT (site TGCCATTCTAT)	0
TGCCCGGCATGGACCGGTTTTCCCGGTAATCCGTATTTGGC (site TGACCGGCTGC)	0.0166
TGCCCGGCATGGACCGGTTTTCCCGGTAATCCGTATTTGGC (site TGCCCGGCTGC)	0
TGCCCGGCATGGACCGGTTTTCCCGGTAATCCGTATTTGGC (site TGGCCGGCTGC)	0
TGCCCGGCATGGACCGGTTTTCCCGGTAATCCGTATTTGGC (site TGTCCGGCTGC)	0
TGCCGATCATGGACCGGTTTTCCCGGTAATCCGTATTTGCG (site TGCCGATCTCG)	0.225
TGCCGTACATGGACCGGTTTTCCCGGTAATCCGTATTTGCT (site AGCCGTACTAG)	0.792
TGCCGTACATGGACCGGTTTTCCCGGTAATCCGTATTTGCT (site CGCCGTACTAG)	0.514
TGCCGTACATGGACCGGTTTTCCCGGTAATCCGTATTTGCT (site GGCCGTACTAG)	0
TGCCGTACATGGACCGGTTTTCCCGGTAATCCGTATTTGCT (site TGCCGTACTAG)	1.25
TGCGACACATGGACCGGTTTTCCCGGTAATCCGTATTTGGT (site TGCGACACTAC)	0.00309
TGCGAGGCATGGACCGGTTTTCCCGGTAATCCGTATTTGGA (site TGCGAGGCTTC)	0.00911
TGCGTTACATGGACCGGTTTTCCCGGTAATCCGTATTTGTT (site TGCGTTACTAA)	0.237
TGCTAGGCATGGACCGGTTTTCCCGGTAATCCGTATTTGAT (site TGCTAGGCTAA)	0.0172
TGCTAGGCATGGACCGGTTTTCCCGGTAATCCGTATTTGAT (site TGCTAGGCTAC)	0.0154
TGCTAGGCATGGACCGGTTTTCCCGGTAATCCGTATTTGAT (site TGCTAGGCTAG)	0
TGCTAGGCATGGACCGGTTTTCCCGGTAATCCGTATTTGAT (site TGCTAGGCTAT)	0.326

Sequence	recombinant UMI read abundance (log10)
TGCTATGCATGGACCGGTTTTCCCGGTAATCCGTATTTGGT (site TGCTAAGCTAC)	0.0239
TGCTATGCATGGACCGGTTTTCCCGGTAATCCGTATTTGGT (site TGCTACGCTAC)	0.0173
TGCTATGCATGGACCGGTTTTCCCGGTAATCCGTATTTGGT (site TGCTAGGCTAC)	0.00428
TGCTATGCATGGACCGGTTTTCCCGGTAATCCGTATTTGGT (site TGCTATGCTAC)	0.262
TGCTATTCATGGACCGGTTTTCCCGGTAATCCGTATTTGTA (site TGCTATTCTTA)	1.33
TGCTCACCATGGACCGGTTTTCCCGGTAATCCGTATTTGTA (site TGCTCACCTTA)	0.0115
TGCTGGGCATGGACCGGTTTTCCCGGTAATCCGTATTTGCC (site TGCTGGGCTGG)	0.00658
TGCTTATCATGGACCGGTTTTCCCGGTAATCCGTATTTGTG (site TGCTTATCTCA)	1
TGCTTGCCATGGACCGGTTTTCCCGGTAATCCGTATTTGAA (site TGCTTGCCTTT)	0.0149
TGGAAGACATGGACCGGTTTTCCCGGTAATCCGTATTTGCA (site AGGAAGACTTG)	1.64
TGGAAGACATGGACCGGTTTTCCCGGTAATCCGTATTTGCA (site CGGAAGACTTG)	1.44
TGGAAGACATGGACCGGTTTTCCCGGTAATCCGTATTTGCA (site GGGAAGACTTG)	0
TGGAAGACATGGACCGGTTTTCCCGGTAATCCGTATTTGCA (site TGGAAGACTTG)	2.67
TGGAAGTCATGGACCGGTTTTCCCGGTAATCCGTATTTGCA (site AGGAAGACTTG)	0.00562
TGGAAGTCATGGACCGGTTTTCCCGGTAATCCGTATTTGCA (site TGGAAGTCTTG)	3.25
TGGAATCCATGGACCGGTTTTCCCGGTAATCCGTATTTGTT (site AGGAATCCTAA)	0
TGGAATCCATGGACCGGTTTTCCCGGTAATCCGTATTTGTT (site CGGAATCCTAA)	0
TGGAATCCATGGACCGGTTTTCCCGGTAATCCGTATTTGTT (site GGGAATCCTAA)	0
TGGAATCCATGGACCGGTTTTCCCGGTAATCCGTATTTGTT (site TGGAATCCTAA)	0
TGGACGGCATGGACCGGTTTTCCCGGTAATCCGTATTTGGC (site TGGACGGCTGC)	1.89
TGGACGGCATGGACCGGTTTTCCCGGTAATCCGTATTTGGC (site TGGCCGGCTGC)	0.327
TGGACGGCATGGACCGGTTTTCCCGGTAATCCGTATTTGGC (site TGGGCGGCTGC)	0
TGGACGGCATGGACCGGTTTTCCCGGTAATCCGTATTTGGC (site TGGTCGGCTGC)	0.392
TGGACGTCATGGACCGGTTTTCCCGGTAATCCGTATTTGTT (site TGGACGTCTAA)	0.483
TGGACTACATGGACCGGTTTTCCCGGTAATCCGTATTTGAC (site AGGACTACTGT)	0

Sequence	recombinant UMI read abundance (log10)
TGGACTACATGGACCGGTTTTCCCGGTAATCCGTATTTGAC (site CGGACTACTGT)	0
TGGACTACATGGACCGGTTTTCCCGGTAATCCGTATTTGAC (site GGGACTACTGT)	0
TGGACTACATGGACCGGTTTTCCCGGTAATCCGTATTTGAC (site TGGACTACTGT)	1.55
TGGACTCCATGGACCGGTTTTCCCGGTAATCCGTATTTGTT (site CGGAATCCTAA)	0
TGGACTCCATGGACCGGTTTTCCCGGTAATCCGTATTTGTT (site TGGACTCCTAA)	0.214
TGGAGCTCATGGACCGGTTTTCCCGGTAATCCGTATTTGCG (site TGGAGCTCTCG)	2.13
TGGATACCATGGACCGGTTTTCCCGGTAATCCGTATTTGCG (site TGGATACCTCG)	0
TGGCCTTCATGGACCGGTTTTCCCGGTAATCCGTATTTGGT (site TAGCCTTCTAC)	0
TGGCCTTCATGGACCGGTTTTCCCGGTAATCCGTATTTGGT (site TCGCCTTCTAC)	1.02
TGGCCTTCATGGACCGGTTTTCCCGGTAATCCGTATTTGGT (site TGGCCTTCTAC)	0.00327
TGGCCTTCATGGACCGGTTTTCCCGGTAATCCGTATTTGGT (site TTGCCTTCTAC)	0.00662
TGGCTGCCATGGACCGGTTTTCCCGGTAATCCGTATTTGGT (site TGGCTGCCTAC)	0.0264
TGGGAGTCATGGACCGGTTTTCCCGGTAATCCGTATTTGCC (site AGGGAGTCTGG)	0
TGGGAGTCATGGACCGGTTTTCCCGGTAATCCGTATTTGCC (site CGGGAGTCTGG)	0
TGGGAGTCATGGACCGGTTTTCCCGGTAATCCGTATTTGCC (site GGGGAGTCTGG)	0.0303
TGGGAGTCATGGACCGGTTTTCCCGGTAATCCGTATTTGCC (site TGGGAGTCTGG)	2.34
TGGGGACCATGGACCGGTTTTCCCGGTAATCCGTATTTGCG (site TGGGGACCTCG)	0.00873
TGGGGTACATGGACCGGTTTTCCCGGTAATCCGTATTTGGG (site TGGGGTACTCC)	0.0151
TGGGTACCATGGACCGGTTTTCCCGGTAATCCGTATTTGTT (site TGGGTACCTAA)	0.0105
TGGGTATCATGGACCGGTTTTCCCGGTAATCCGTATTTGCA (site TGGGTATCTTG)	1.83
TGGGTCCCATGGACCGGTTTTCCCGGTAATCCGTATTTGGT (site TGGGTCCCTAC)	0.00844
TGGTAGGCATGGACCGGTTTTCCCGGTAATCCGTATTTGGT (site TGATAGGCTAC)	0.0183
TGGTAGGCATGGACCGGTTTTCCCGGTAATCCGTATTTGGT (site TGCTAGGCTAC)	0.00286
TGGTAGGCATGGACCGGTTTTCCCGGTAATCCGTATTTGGT (site TGGTAGGCTAC)	0.848
TGGTAGGCATGGACCGGTTTTCCCGGTAATCCGTATTTGGT (site TGTTAGGCTAC)	0.307
